In PubChem BioAssay AID180 (DTP/NCI, 2004):
Values joined by “and” are separate entries in the source; they are usually repeats but may differ in a detail not shown here. Equal values may be shown once.

Tested on: BDF1 mice, Adenocarcinoma 755 s.c., tumor weight T/C
Assay: NCI In Vivo Anticancer Drug Screen. Data for tumor model Adenocarcinoma 755 (subcutaneous) in B6D2F1 (BDF1) mice
Conditions: endpoint: mean tumor weight, schedule: Q01DX011 (ip), higher = larger tumour
In short: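 Values express treated (T) relative to vehicle-dosed control (C) animals, based on survival or tumour size measured after compound treatment of mice bearing a transplanted tumour.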

[1] = dose: 125.0 mg/kg/injection, vehicle: carboxymethylcellulose (CMC)
[2] = dose: 250.0 mg/kg/injection, vehicle: carboxymethylcellulose (CMC)
[3] = dose: 25.0 mg/kg/injection, vehicle: methylcellulose (MC)
[4] = dose: 12.5 mg/kg/injection, vehicle: other
[5] = dose: 50.0 mg/kg/injection, vehicle: other

C[N+](C)(C)c1ncnc2c1ncn2C1CCCO1 (centres undefined)
T/C (dose: 18.7 mg/kg/injection, vehicle: saline): 100 % of control | T/C (dose: 37.5 mg/kg/injection, vehicle: saline): 5 % of control | T/C (dose: 100.0 mg/kg/injection, vehicle: saline): 2 % of control

CCCn1cnc2c(SCCc3ccccc3)nc(N)nc21
T/C (dose: 50.0 mg/kg/injection, vehicle: methylcellulose (MC)): 47 % of control | T/C (dose: 100.0 mg/kg/injection, vehicle: methylcellulose (MC)): 15 % of control | T/C (dose: 200.0 mg/kg/injection, vehicle: methylcellulose (MC)): 18 % of control

NC(=O)NO
T/C (dose: 15.97 mg/kg/injection, vehicle: carboxymethylcellulose (CMC)): 76 % of control | T/C (dose: 25.0 mg/kg/injection, vehicle: carboxymethylcellulose (CMC)): 111 % of control | T/C (dose: 31.93 mg/kg/injection, vehicle: carboxymethylcellulose (CMC)): 67 % of control | T/C (dose: 50.0 mg/kg/injection, vehicle: carboxymethylcellulose (CMC)): 83 % of control | T/C (dose: 51.08 mg/kg/injection, vehicle: carboxymethylcellulose (CMC)): 56 % of control | T/C (dose: 62.5 mg/kg/injection, vehicle: carboxymethylcellulose (CMC)): 31 % of control | T/C (dose: 63.85 mg/kg/injection, vehicle: carboxymethylcellulose (CMC)): 41 % of control and 47 % of control | T/C (dose: 85.13 mg/kg/injection, vehicle: carboxymethylcellulose (CMC)): 53 % of control | T/C (dose: 100.0 mg/kg/injection, vehicle: carboxymethylcellulose (CMC)): 58 % of control | T/C [1]: 44 % of control | T/C (dose: 127.7 mg/kg/injection, vehicle: carboxymethylcellulose (CMC)): 22 % of control and 39 % of control | T/C (dose: 200.0 mg/kg/injection, vehicle: carboxymethylcellulose (CMC)): 13 % of control | T/C [2]: 6 % of control and 12 % of control and 19 % of control | T/C (dose: 500.0 mg/kg/injection, vehicle: carboxymethylcellulose (CMC)): 19 % of control

CCCCn1cnc2c(SCc3ccncc3)nc(N)nc21
T/C (dose: 3.12 mg/kg/injection, vehicle: methylcellulose (MC)): 35 % of control | T/C (dose: 6.25 mg/kg/injection, vehicle: methylcellulose (MC)): 106 % of control | T/C (dose: 12.5 mg/kg/injection, vehicle: methylcellulose (MC)): 19 % of control | T/C [3]: 1 % of control and 13 % of control

COc1ccc(C[n+]2cc([O-])on2)cc1
T/C (dose: 0.39 mg/kg/injection, vehicle: carboxymethylcellulose (CMC)): 75 % of control | T/C (dose: 0.78 mg/kg/injection, vehicle: carboxymethylcellulose (CMC)): 80 % of control | T/C (dose: 1.56 mg/kg/injection, vehicle: carboxymethylcellulose (CMC)): 63 % of control | T/C (dose: 3.0 mg/kg/injection, vehicle: carboxymethylcellulose (CMC)): 70 % of control | T/C (dose: 6.0 mg/kg/injection, vehicle: carboxymethylcellulose (CMC)): 89 % of control | T/C (dose: 6.25 mg/kg/injection, vehicle: carboxymethylcellulose (CMC)): 57 % of control | T/C (dose: 12.0 mg/kg/injection, vehicle: carboxymethylcellulose (CMC)): 52 % of control | T/C (dose: 12.5 mg/kg/injection, vehicle: carboxymethylcellulose (CMC)): 51 % of control | T/C (dose: 24.0 mg/kg/injection, vehicle: carboxymethylcellulose (CMC)): 67 % of control

C=CC1OCCN1CC (centres undefined)
T/C [4]: 106 % of control | T/C [5]: 87 % of control

CS(=O)(=O)OCC(=O)NCCNC(=O)COS(C)(=O)=O
T/C (dose: 8.75 mg/kg/injection, vehicle: carboxymethylcellulose (CMC)): 107 % of control | T/C (dose: 17.5 mg/kg/injection, vehicle: carboxymethylcellulose (CMC)): 50 % of control | T/C (dose: 35.0 mg/kg/injection, vehicle: carboxymethylcellulose (CMC)): 49 % of control | T/C (dose: 40.0 mg/kg/injection, vehicle: carboxymethylcellulose (CMC)): 61 % of control | T/C (dose: 60.0 mg/kg/injection, vehicle: carboxymethylcellulose (CMC)): 20 % of control | T/C (dose: 70.0 mg/kg/injection, vehicle: carboxymethylcellulose (CMC)): 12 % of control | T/C (dose: 95.0 mg/kg/injection, vehicle: carboxymethylcellulose (CMC)): 9 % of control | T/C (dose: 140.0 mg/kg/injection, vehicle: carboxymethylcellulose (CMC)): 2 % of control and 6 % of control | T/C (dose: 210.0 mg/kg/injection, vehicle: carboxymethylcellulose (CMC)): 7 % of control

CNC(C)=O
T/C [1]: 79 % of control and 86 % of control | T/C [2]: 104 % of control and 85 % of control | T/C (dose: 1000.0 mg/kg/injection, vehicle: carboxymethylcellulose (CMC)): 60 % of control and 82 % of control

COC(=O)C1=COC(C)C2CN3CCc4c([nH]c5cc(OC)ccc45)C3CC12 (centres undefined)
T/C (dose: 22.0 mg/kg/injection, vehicle: other): 116 % of control | T/C (dose: 44.0 mg/kg/injection, vehicle: other): 98 % of control | T/C (dose: 87.5 mg/kg/injection, vehicle: other): 80 % of control

CC(Sc1ncnc2nc[nH]c12)c1ccccc1 (centres undefined)
T/C (dose: 0.37 mg/kg/injection, vehicle: methylcellulose (MC)): 60 % of control | T/C (dose: 0.65 mg/kg/injection, vehicle: methylcellulose (MC)): 83 % of control | T/C (dose: 1.11 mg/kg/injection, vehicle: methylcellulose (MC)): 35 % of control | T/C (dose: 1.3 mg/kg/injection, vehicle: methylcellulose (MC)): 97 % of control | T/C (dose: 2.5 mg/kg/injection, vehicle: methylcellulose (MC)): 37 % of control | T/C (dose: 3.33 mg/kg/injection, vehicle: methylcellulose (MC)): 62 % of control | T/C (dose: 5.0 mg/kg/injection, vehicle: methylcellulose (MC)): 12 % of control | T/C (dose: 10.0 mg/kg/injection, vehicle: methylcellulose (MC)): 18 % of control

CCOC(=O)c1cnc(SCc2ccccc2Cl)nc1N1CC1
T/C (dose: 8.0 mg/kg/injection, vehicle: carboxymethylcellulose (CMC)): 54 % of control | T/C (dose: 8.0 mg/kg/injection, vehicle: other): 110 % of control | T/C (dose: 16.0 mg/kg/injection, vehicle: carboxymethylcellulose (CMC)): 75 % of control | T/C (dose: 16.0 mg/kg/injection, vehicle: other): 70 % of control | T/C (dose: 28.0 mg/kg/injection, vehicle: carboxymethylcellulose (CMC)): 29 % of control | T/C (dose: 28.0 mg/kg/injection, vehicle: other): 62 % of control | T/C (dose: 56.0 mg/kg/injection, vehicle: carboxymethylcellulose (CMC)): 16 % of control | T/C (dose: 56.0 mg/kg/injection, vehicle: other): 22 % of control

O=C(OCC1OC(n2cnc3c(=S)nc[nH]c32)C(OC(=O)c2ccc([N+](=O)[O-])cc2)C1OC(=O)c1ccc([N+](=O)[O-])cc1)c1ccc([N+](=O)[O-])cc1 (centres undefined)
T/C (dose: 6.25 mg/kg/injection, vehicle: other): 70 % of control | T/C [4]: 85 % of control | T/C (dose: 25.0 mg/kg/injection, vehicle: other): 58 % of control and 68 % of control | T/C [5]: 52 % of control and 76 % of control | T/C (dose: 75.0 mg/kg/injection, vehicle: other): 8 % of control | T/C (dose: 150.0 mg/kg/injection, vehicle: other): 1 % of control | T/C (dose: 200.0 mg/kg/injection, vehicle: other): 1 % of control and 6 % of control | T/C (dose: 250.0 mg/kg/injection, vehicle: other): 3 % of control

CO[C@@H]([CH2][Hg][S]C#N)[C@@H]([CH2][Hg][S]C#N)OC
T/C (dose: 9.5 mg/kg/injection, vehicle: carboxymethylcellulose (CMC)): 56 % of control | T/C (dose: 18.75 mg/kg/injection, vehicle: carboxymethylcellulose (CMC)): 57 % of control

OCCn1cnc2c(=S)nc[nH]c21
T/C [3]: 38 % of control | T/C (dose: 75.0 mg/kg/injection, vehicle: methylcellulose (MC)): 74 % of control | T/C (dose: 225.0 mg/kg/injection, vehicle: methylcellulose (MC)): 34 % of control
